The target of test [1] is T1, Bromodomain-containing protein 4 (Homo sapiens, UniProt O60885). The test can be described thus: Inhibition of BRD4 BD1 (unknown origin) by FRET assay.
Test [2] concerns the target T1, Bromodomain-containing protein 4. Kind of test: Inhibition of BRD4 (unknown origin) by FRET assay.

Each structure is given as a SMILES string.

One may read the IC50 as the concentration at which inhibition is half-maximal.

On to `Cc1nnn(C)c1-c1cnc2c3ccc(C(C)(C)O)cc3n([C@@H](c3ccccc3)C3CCOCC3)c2c1`, for which the half-inhibitory concentration (IC50) in test [1] is 2.88 nM.
With `CCS(=O)(=O)Nc1ccc(Oc2ccc(F)cc2F)c(-c2cn(C)c(=O)c3[nH]ccc23)c1` [MIVEBRESIB], in test [2], the IC50 was 1.51 nM.

The values are drawn from ChEMBL document CHEMBL6109162, “Discovery of Highly Potent BET Inhibitors based on a Tractable Tricyclic Scaffold” (ACS Med Chem Lett, 2025).
